Data on 4 molecules can be found in PMC11943913, “Peptides from Harpadon nehereus Bone Ameliorate Sodium Palmitate-Induced HepG2 Lipotoxicity by Regulating Oxidative Stress and Lipid Metabolism” (Marine Drugs, 2025).

One data set deals with Nrf2 pathway. The note with it: ref [34]; cited from earlier work. From the text: PANa triggers the buildup of reactive oxygen species (ROS) within cells, resulting in oxidative stress and subsequent cellular injury. Antioxidant enzymes are essential for alleviating oxidative stress.
For another data set, the system named is FASN and ACC1. The following applies: ref [39]; cited from earlier work. From the text: Lipid metabolism, including lipolysis, lipogenesis, and lipid transport, determines the lipid levels in the body. FASN and ACC are two significant lipid synthetases that play a key role in lipid accumulation. PANa primarily influences hepatic lipogenesis through the modulation of FASN and ACC1 expression. […] CPT1 and ATGL are closely linked to lipolysis and are crucial for regulating lipid levels. ...

Data set [1] has as its system HepG2 cells. Kind of data set: CCK-8 proliferation of HepG2 with peptide alone. The note with it: concentrations below 200 µM, 24 h, CCK-8, n = 3. The class given is cell-based. As for the experimental part:
HepG2 cells were cultured in DMEM supplemented with penicillin at a concentration of 100 U/mL, streptomycin at 100 μg/mL, and fetal bovine serum at a volume ratio of 10% under conditions of 37 °C and 5% CO2. A total of 2 ×10^4 cells per well were seeded into a 96-well plate for overnight culture. The upper layer of medium was carefully aspirated, and 200 μL of different concentrations of oligopeptide solution (50 μM, 100 μM, 200 μM) prepared with cell complete medium was added to each well. Twenty-four hours later, the proliferation rate of the cells was measured according to the instructions of the CCK-8 kit, and the appropriate concentration of oligopeptide was screened out.

Data set [2] relates to HepG2 cells. Briefly: Cell viability of PANa-induced HepG2 (CCK-8). The following applies: 100 μM peptide 4 h, then 350 µM PANa 24 h, **** p < 0.0001 vs PANa group. The class given is cell-based. On the procedure:
A total of 2 × 10^4 cells/well were inoculated in 96-well plates for culture at 37 °C and 5% CO2. Following this period, the cells received treatment with 200 μL medium containing 100 μM LR-7, KA-8, or PG-7 for 4 h before adding 350 μM PANa to each well. After incubation for an additional 24 h, the cell proliferation rates were assessed using the CCK-8 assay protocols.

Another data set relates to catalase (CAT). Briefly: Catalase (CAT) activity in HepG2. The class given is cell-based. The note with it: 100 μM peptide 4 h, then 350 µM PANa 24 h, HepG2. On the procedure: (§1) After incubation, cells were treated with 100 μM of peptides for 4 h. After removing the media, PANa was added for 24 h of incubation. The levels of catalase (CAT), superoxide dismutase (SOD), glutathione peroxidase (GSH-Px), malondialdehyde (MDA), triacylglycerol (TG), total cholesterol (TCHO), low-density lipoprotein cholesterol (LDL-C), and high-density lipoprotein cholesterol (HDL-C) in the supernatant were determined according to the kit instructions.

The subject of data set [3] is superoxide dismutase (SOD). Briefly: Superoxide dismutase (SOD) activity in HepG2. The note with it: 100 μM peptide 4 h, then 350 µM PANa 24 h. The class given is cell-based. As for the experimental part:
as §1

Data set [4] relates to glutathione peroxidase (GSH-Px). Briefly: Glutathione peroxidase (GSH-Px) activity in HepG2. The class given is cell-based. The following applies: 100 μM peptide 4 h, then 350 µM PANa 24 h, HepG2. On the procedure: as §1
In another data set the test system is malondialdehyde (MDA). Kind of data set: Malondialdehyde (MDA) level in HepG2. It is filed as cell-based. The following applies: 100 μM peptide 4 h, then 350 µM PANa 24 h, HepG2. On the procedure: as §1
The next data set has as its system Nrf2. Briefly: Western blot Nrf2. It is filed as cell-based. The following applies: 100 μM peptide 4 h, then 350 µM PANa 24 h, HepG2, Western blot. On the procedure:
(§2) After treatment, cells were washed with pre-chilled PBS and lysed with ice-cold lysis buffer for 30 min. The supernatant was collected after centrifugation at 12,000× g for 10 min and stored at −80 °C. Protein concentration was determined using a BCA protein assay kit. Equal amounts of protein (20–40 µg) were subjected to 10% sodium dodecyl sulfate-polyacrylamide gel electrophoresis (SDS-PAGE) and transferred to PVDF membranes (Polyvinylidene Fluoride, Merck, Darmstadt, Germany). Non-specific binding sites were blocked with 5% bovine serum albumin (BSA) solution at room temperature for 1 h, followed by incubation with the primary antibody at 4 °C overnight. After washing with TBST (3 times, 10 min/time), the membrane was incubated with the secondary antibody at room temperature for 1 h. Following further washing with TBST (3 times, 10 min/time), antibody signals were detected using a Western blot development system. The dilution ratios for the internal reference protein, vascular endothelial injury-related proteins, and oxidative stress-related pathway proteins were prepared according to the manufacturer’s instructions.
Background: In western blotting, separated proteins are transferred to a membrane and probed.

For another data set, the system named is HO-1. Kind of data set: Western blot HO-1. The class given is cell-based. The following applies: 100 μM peptide 4 h, then 350 µM PANa 24 h, HepG2, Western blot. On the procedure:
as §2

For the next data set, the system named is NQO1. Kind of data set: Western blot NQO1. The class given is cell-based. The following applies: 100 μM peptide 4 h, then 350 µM PANa 24 h, HepG2, Western blot. As for the experimental part:
as §2

Another data set concerns triacylglycerol (TG). Kind of data set: Triacylglycerol (TG) level in HepG2. The class given is cell-based. The following applies: 100 μM peptide 4 h, then 350 µM PANa 24 h, HepG2. On the procedure: as §1
Another data set concerns total cholesterol (TCHO). Kind of data set: Total cholesterol (TCHO) level in HepG2. The class given is cell-based. The following applies: 100 μM peptide 4 h, then 350 µM PANa 24 h, HepG2. On the procedure:
as §1

Data set [5] has as its system low-density lipoprotein cholesterol (LDL-C). Briefly: LDL-C level in HepG2. The following applies: 100 μM peptide 4 h, then 350 µM PANa 24 h, HepG2. The class given is cell-based. On the procedure:
as §1

Data set [6] relates to high-density lipoprotein cholesterol (HDL-C). Briefly: HDL-C level in HepG2. The note with it: 100 μM peptide 4 h, then 350 µM PANa 24 h, HepG2. The class given is cell-based. On the procedure:
as §1

In data set [7] the test system is fatty acid synthase (FASN). Kind of data set: Western blot FASN. It is filed as cell-based. The following applies: 100 μM peptide 4 h, then 350 µM PANa 24 h, HepG2, Western blot. On the procedure: as §2
Data set [8] relates to phosphorylated ACC1 (p-ACC1). Briefly: Western blot p-ACC1. The following applies: 100 μM peptide 4 h, then 350 µM PANa 24 h, HepG2, Western blot. The class given is cell-based. On the procedure:
as §2

The subject of data set [9] is proteins associated with lipid metabolism. Kind of data set: Western blot, proteins associated with lipid metabolism overall. It is filed as cell-based. The following applies: 100 μM peptide 4 h, then 350 µM PANa 24 h, HepG2, Western blot. As for the experimental part:
as §2

For another data set, the system named is pancreatic lipase. Briefly: Pancreatic lipase activity inhibition. It is filed as biochemical. The note with it: compared with orlistat (positive control); 4-nitrophenyl palmitate substrate, lipase 1.2 mg/mL, peptide 100 μM, Tris-HCl pH 8.0, 37 °C, absorbance 405 nm, three parallel wells. As for the experimental part: A working substrate solution consisting of 4-nitrophenyl palmitate dissolved in sodium acetate solution (containing 1% Triton-X 100, 100 mL, 5 mM, pH 5.0) was prepared. Enzyme powder was dissolved in Tris-HCl buffer (pH 8.0, 37 °C). This mixture was incubated at 4 °C for 2 h before centrifugation at 5000 r/min for 5 min, yielding the supernatant used to prepare a pancreatic lipase solution of 1.2 mg/mL. Orlistat at a concentration of 1 mg/mL in Tris-HCl buffer (pH 8.0; 37 °C) was prepared alongside DMSO to reach a concentration of 350 μg/mL peptide solution. The peptide solution of 100 μM was prepared with Tris-HCl buffer (pH = 8.0, 37 °C). The absorbance was measured at 405 nm, and the inhibition rate was measured in parallel with three holes due to the methodology of Franco et al..

The next data set relates to HUVECs. The note with it: earlier work, ref [21]; cited from earlier work. The text has this:
Harpadon nehereus, a nutrient-rich marine species indigenous to the Indo-Pacific region, remains underexploited despite its significant collagen content (18–22% wet weight). Harpadon nehereus serves as an economical source that is rich in protein and trace elements. Its proteins and derived peptides offer numerous health benefits including immune enhancement, blood pressure reduction, cardiovascular protection, and inflammation mitigation. In prior research, we successfully isolated three novel peptides LALFVPR (LR-7), KLHDEEVA (KA-8), and PSRILYG (PG-7) from the enzymatic hydrol ... || Studies have confirmed that oxidative stress and lipid metabolism disorders are significant factors in the occurrence and development of hyperlipidemia Dietary intervention is a crucial auxiliary strategy for the management of hyperlipidemia. Collagen peptides have been extensively used as a nutritional intervention in the treatment of various diseases due to their notable antioxidant, anti-inflammatory, and hypolipidemic activities. […] Anoth ...

With `COc1ccc([C@@H]2CC(=O)c3c(O)cc(O)cc3O2)cc1O` [hesperetin], the “hepatic steatosis, oxidative stress, inflammatory cell infiltration and fibrosis via Nrf2 pathway” value in the data set on Nrf2 pathway was “reduce hepatic steatosis, alleviate oxidative stress, decrease inflammatory cell infiltration, and mitigate fibrosis through activation of the Nrf2 pathway”.
Turning to `Oc1ccc2c(c1)OCO2` [sesamol (SEM), sesamol], the “expression levels of FASN and ACC1 / lipid accumulation” value with FASN and ACC1 was “influence lipid accumulation by decreasing the expression levels of FASN and ACC1”.
As for “KLHDEEVA [KA-8, peptide from Harpadon nehereus bone collagen enzymatic hydrolysates]”, the “effect on apoptosis of HepG2 cells” value with HepG2 cells [1] was “no effect on the apoptosis of HepG2 cells”. Also, the “cell viability of PANa-exposed HepG2” value in the data set with HepG2 cells [2] was “notably enhanced the cell viability”. Besides, in the data set on catalase (CAT), the “CAT activity, reversal of PANa-induced reduction” value is listed as “effectively reversed the reduction”. In addition, the “SOD activity, reversal of PANa-induced reduction” value in [3] is reported as “effectively reversed the reduction”. The “GSH-Px activity, reversal of PANa-induced reduction” value in data set [4] is reported as “effectively reversed the reduction”. Further, in the data set with malondialdehyde (MDA), the MDA level entry is recorded as “significantly decreased the MDA levels”. In addition, the Nrf2 protein level result in the data set on Nrf2 is reported as “significant increases in the levels”. Further, the HO-1 protein level entry in the data set on HO-1 is listed as “significant increases in the levels”. Moreover, the NQO1 protein level result with NQO1 is “significant increases in the levels”. The “TG, effect on PANa-induced increase” value in the data set on triacylglycerol (TG) is reported as “notably reversed the PANa-induced increases”. The “TCHO, effect on PANa-induced increase” value with total cholesterol (TCHO) was “notably reversed the PANa-induced increases”. Besides, the “LDL-C, effect on PANa-induced increase” value in data set [5] is reported as “notably reversed the PANa-induced increases”. The “HDL-C, effect on PANa-induced decrease” value in data set [6] is listed as “notably reversed”. The “FASN expression vs PANa group” value in data set [7] is recorded as “FASN expression decreased”. Further, in data set [8], the “p-ACC1 level vs PANa group” value is listed as “p-ACC1 levels increased significantly”. Further, the “abnormal expression of proteins associated with lipid metabolism by PANa (FASN, ATGL, CPT1, p-AMPKα)” value in data set [9] is “significantly reversed”. For the same molecule, the “inhibition of pancreatic lipase activity” value with pancreatic lipase was “comparable results to orlistat”.
With “PSRILYG [PG-7, peptide from Harpadon nehereus bone collagen enzymatic hydrolysates]”, in the data set with HepG2 cells [1], the “effect on apoptosis of HepG2 cells” value is on record as “no effect on the apoptosis of HepG2 cells”. In addition, in the data set on HepG2 cells [2], the “cell viability of PANa-exposed HepG2” value is given as “notably enhanced the cell viability”. Also, the “CAT activity, reversal of PANa-induced reduction” value in the data set on catalase (CAT) is listed as “effectively reversed the reduction”. For the same molecule, the “SOD activity, reversal of PANa-induced reduction” value in data set [3] is recorded as “effectively reversed the reduction”. Further, the “GSH-Px activity, reversal of PANa-induced reduction” value in data set [4] is “effectively reversed the reduction”. In addition, the MDA level entry in the data set with malondialdehyde (MDA) is “significantly decreased the MDA levels”. Moreover, in the data set with Nrf2, the Nrf2 protein level result is on record as “significant increases in the levels”. In the data set with HO-1, the HO-1 protein level entry is reported as “significant increases in the levels”. Also, the NQO1 protein level result with NQO1 is listed as “significant increases in the levels”. Besides, in the data set with triacylglycerol (TG), the “TG, effect on PANa-induced increase” value is given as “notably reversed the PANa-induced increases”. The “TCHO, effect on PANa-induced increase” value in the data set on total cholesterol (TCHO) is recorded as “notably reversed the PANa-induced increases”. In addition, the “LDL-C, effect on PANa-induced increase” value in [5] is given as “notably reversed the PANa-induced increases”. In addition, the “HDL-C, effect on PANa-induced decrease” value in [6] is recorded as “notably reversed”. The “FASN expression vs PANa group” value in data set [7] is “FASN expression decreased”. Besides, in [8], the “p-ACC1 level vs PANa group” value is “p-ACC1 levels increased significantly”. Moreover, in [9], the “abnormal expression of proteins associated with lipid metabolism by PANa (FASN, ATGL, CPT1, p-AMPKα)” value is given as “significantly reversed”. Moreover, in the data set on pancreatic lipase, the “inhibition of pancreatic lipase activity” value was “less effective than orlistat”. In addition, the “effect on angiotensin II-induced dysfunctions within HUVECs” value with HUVECs is “improve angiotensin II-induced dysfunctions within HUVECs”.
